Nine compounds from patent publication US7282522B2, “Hydroxamic acid derivatives and the method for preparing thereof” (Amorepacific Corporation, priority 2003, dated 2007) can be followed below.

Data set [1] has as its target T1, RARα (Homo sapiens, UniProt P10276).
T1 construct: expressed in transfected cells; host or cells: CV-1 cells (ATCC)
T1 sequence (P10276 1-462): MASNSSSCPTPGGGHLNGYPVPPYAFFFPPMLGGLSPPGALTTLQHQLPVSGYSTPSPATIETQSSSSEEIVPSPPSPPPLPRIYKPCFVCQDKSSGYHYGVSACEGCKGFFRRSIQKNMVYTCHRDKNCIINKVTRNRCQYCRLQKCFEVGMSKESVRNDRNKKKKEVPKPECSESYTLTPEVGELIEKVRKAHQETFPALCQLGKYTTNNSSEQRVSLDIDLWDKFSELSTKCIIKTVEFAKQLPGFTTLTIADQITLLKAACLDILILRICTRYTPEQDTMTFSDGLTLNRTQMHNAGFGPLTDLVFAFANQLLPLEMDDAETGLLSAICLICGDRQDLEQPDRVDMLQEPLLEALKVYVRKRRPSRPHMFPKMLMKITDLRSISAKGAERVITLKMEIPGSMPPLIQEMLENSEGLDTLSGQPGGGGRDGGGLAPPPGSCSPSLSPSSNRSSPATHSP
Kind of data set: RARE-luciferase reporter assay in transfected CV-1 cells (affinity to retinoic acid receptor), RARα. It is filed as cell-based. The note with it: treated 24 hours at final concentration 10^−4M, control group 1000. The source says:
This example illustrates affinities of hydroxamic acid derivatives obtained in Examples 1 to 55 to retinoic acid receptor, in comparison with retinol and retinoic acid.
(§1) Receptor-expression plasmid, pECE-RARα and pECE-RARγ were engineered by the prior method (Mol. Cell. Biol. 1996, 16, 1138-1149). RARE-tk-Luc, i.e. RARE reporter was obtained by inserting RARE fragment from b-RARE-tk-CAT into pGL3 luciferase basic vector. CV-1 cells were obtained from ATCC (American Type Culture Collection).
CV-1 cells were seeded into 96-well microtiter plate at 5,000 cells per well and cultured in DMEM (Dulbecco's Modified Eagle's Media) supplemented with 2.5% fetal bovine serum. 24 Hours later, the cells were transfected with 10 ng of pECE-RARα, long of pECE-RARγ, 100 ng of reporter plasmid and 100 ng of β-galactosidase-expression vector, using LipofectaminPlus (GIBCO BRL, grand island, N.Y.). 24 Hours post-transfection, the cells were treated for 24 hours with hydroxamic acid derivatives of Examples 1˜55 or retinol at a final concentration of 10^−4M or with retinoic acid at a final concentration of 10^−5M, which is 10 times lower concentration than those of the former.

The target in data set [2] is T2, RARγ (Homo sapiens, UniProt P13631).
T2 construct: expressed in transfected cells; host or cells: CV-1 cells (ATCC)
T2 sequence (P13631 1-454): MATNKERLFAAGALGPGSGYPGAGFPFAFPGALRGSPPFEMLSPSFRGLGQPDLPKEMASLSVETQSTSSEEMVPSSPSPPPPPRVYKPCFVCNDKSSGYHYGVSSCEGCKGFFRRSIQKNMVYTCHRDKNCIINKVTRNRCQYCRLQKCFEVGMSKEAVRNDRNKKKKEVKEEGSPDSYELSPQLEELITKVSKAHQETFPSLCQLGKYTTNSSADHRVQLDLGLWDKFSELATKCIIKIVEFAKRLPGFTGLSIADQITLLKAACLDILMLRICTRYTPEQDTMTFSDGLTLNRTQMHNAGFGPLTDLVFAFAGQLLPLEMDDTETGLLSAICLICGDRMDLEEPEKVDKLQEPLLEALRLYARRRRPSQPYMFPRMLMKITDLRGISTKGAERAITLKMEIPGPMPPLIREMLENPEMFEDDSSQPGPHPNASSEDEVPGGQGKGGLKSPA
Kind of data set: RARE-luciferase reporter assay in transfected CV-1 cells (affinity to retinoic acid receptor), RARγ. It is filed as cell-based. To be noted: treated 24 hours at final concentration 10^−4M, control group 5000. The method, then:
as §1
CV-1 cells were seeded into 96-well microtiter plate at 5,000 cells per well and cultured in DMEM (Dulbecco's Modified Eagle's Media) supplemented with 2.5% fetal bovine serum. 24 Hours later, the cells were transfected with 10 ng of pECE-RARα, long of pECE-RARγ, 100 ng of reporter plasmid and 100 ng of β-galactosidase-expression vector, using LipofectaminPlus (GIBCO BRL, grand island, N.Y.).

Data set [3] has as its system procollagen type I. Nature of the data set: Effect on collagen biosynthesis (procollagen type I ELISA) in human fibroblasts. It is filed as cell-based. To be noted: 10^−4M, 24 hours, serum-free medium, relative to control group = 100. The method, then: Human fibroblasts were seeded into 24-well plate at 1×10^5 cells per well and then cultured to 90% of growth.
For each supernatant, procollagen production was measured with procollagen type I ELISA kit.

Data set [4] concerns collagenase. Nature of the data set: Inhibition of collagenase expression in human fibroblasts (ELISA kit). It is filed as cell-based. To be noted: 10^−4M, 24 hours, serum-free medium, relative to control group = 100. The method, then: Human fibroblasts were seeded into 96-well microtiter plate at 5,000 cells per well and then cultured to 90% of growth in DMEM (Dulbecco's Modified Eagle's Media) supplemented with 2.5% fetal bovine serum. Then, the fibroblastes were cultured in serum-free DMEM for 24 hours and treated for 24 hours with 10^−4M of hydroxamic acid derivatives of Examples 1˜55, retinol or retinoic acid in serum-free medium, and then the culture fluid was collected.
(§2) For each culture fluid, collagenase production was measured with collagenase kit (commercialized by AmershamPharmacia Biotech). Firstly, the culture fluid was added to 96-well plate spread with primary collagenase antibody and then antigen-antibody reaction was performed in an incubator for 3 hours. Later, chromophore-conjugated secondary antibody was added to the 96-well plate and then reacted for 15 minutes. Then, color former was added thereto, to induce development at room temperature for 15 minutes. 1M of sulfuric acid was added to stop the reaction. […] The color density depends on the progress of the reaction. The absorbance of the yellow 96-well plate was measured at 405 nm using absorptiometer. Collagenase expression was calculated by the following equation 1. Herein, the absorbance of the culture fluid collected from the medium with no material treated was used as a control. Collagenase expression (%)=(Absorbance of test group with said material treated/Absorbance of control group with no material treated)×100 [Equation 1]
Collagenase expression was evaluated as a relative value, in consideration that the value of control group with no material treated is 100.
(In general: ELISA stands for enzyme-linked immunosorbent assay.)

The subject of data set [5] is elastase. Nature of the data set: Inhibition of elastase expression in human fibroblasts (ELISA kit). It is filed as cell-based. To be noted: 10^−4M, 24 hours, serum-free medium, relative to control group = 100. Here is the method: as §2, with “elastase” for “collagenase”, “Elastase” for “Collagenase”, “2.” for “1.”, “2]” for “1]”
Elastase expression was evaluated as a relative value, in consideration that the value of control group with no material treated is 100.

The subject of data set [6] is white guinea pigs. Nature of the data set: Phototoxicity test (UVA irradiation). To be noted: for Evaluation (phototoxicity): 1%(w/v) solution, UVA 15 J/cm^2; for Phototoxic index: 50 μl of 1%(w/v) solution, UVA 320~380 nm 15 J/cm^2, observed 24, 48 and 72 hours.
In data set [7] the test system is rabbits. Nature of the data set: Primary skin irritation test on animals (Draize P.I.I.). The note with it: depilated back; for P.I.I. (Primary Irritation Index): 0.5 ml of 1% solution in 1,3-butylene glycol:ethanol 7:3, observed 24 or 72 hours later; for Evaluation (skin irritation): 1% solution, according to Draize's P.I.I.

As to `Cc1cccc(C(=O)Nc2ccc(C(=O)NO)cc2)c1` [Example 3, N-[4-(N-hydroxycarbamoyl)phenyl][3-methylphenyl]carboxyamide], the “Luciferase activity RARα” value in data set [1] was 11600. In addition, in data set [2], the “Luciferase activity RARγ” value is listed as 10000. Further, the “Collagen biosynthesis (%)” value in data set [3] came to 120%. In data set [4], the “Collagenase expression (%)” value is 80%. Also, the “Elastase expression (%)” value in data set [5] is recorded as 69%. For the same compound, in data set [6], the “Evaluation (phototoxicity)” value is on record as “No phototoxicity (lower value than 0.5, criterion value to be estimated as no phototoxicity)” and the Phototoxic index was 0. Besides, in data set [7], the “P.I.I. (Primary Irritation Index)” value worked out at 0.375 and the “Evaluation (skin irritation)” value was “No irritation”.

In the case of `CC(C)(C)c1ccc(C(=O)Nc2ccc(C(=O)NO)cc2)cc1` [Example 8, N-[4-(N-hydroxycarbamoyl)phenyl][4-tert-butylphenyl]carboxyamide], the “Luciferase activity RARα” value in data set [1] amounted to 10002. Also, in data set [2], the “Luciferase activity RARγ” value came to 12000. Moreover, in data set [3], the “Collagen biosynthesis (%)” value worked out at 112%. For the same compound, in data set [4], the “Collagenase expression (%)” value was 90%. In addition, in data set [5], the “Elastase expression (%)” value is recorded as 69%. Besides, in data set [6], the “Evaluation (phototoxicity)” value is “No phototoxicity (lower value than 0.5, criterion value to be estimated as no phototoxicity)” and the Phototoxic index amounted to 0. Besides, in data set [7], the “P.I.I. (Primary Irritation Index)” value was 0.330 and the “Evaluation (skin irritation)” value is “No irritation”.

With `O=C(NO)c1ccc(NC(=O)c2ccccc2)cc1` [Example 1, N-[4-(N-hydroxycarbamoyl)phenyl]benzamide], the “Luciferase activity RARα” value in data set [1] is 10000. Also, the “Luciferase activity RARγ” value in data set [2] was determined as 12000. Besides, the “Collagen biosynthesis (%)” value in data set [3] worked out at 105%. For the same compound, in data set [4], the “Collagenase expression (%)” value is reported as 78%. The “Elastase expression (%)” value in data set [5] amounted to 79%. Further, in data set [6], the “Evaluation (phototoxicity)” value is listed as “No phototoxicity (lower value than 0.5, criterion value to be estimated as no phototoxicity)” and the Phototoxic index came out at 0. In data set [7], the “P.I.I. (Primary Irritation Index)” value is on record as 0.375 and the “Evaluation (skin irritation)” value was “No irritation”.

As for `CCCCc1ccc(NC(=O)c2ccc(C(=O)NO)cc2)cc1` [Example 40, [4-(N-hydroxycarbamoyl)phenyl]-N-[4-butylphenyl]carboxyamide], in data set [1], the “Luciferase activity RARα” value worked out at 14300. Besides, the “Luciferase activity RARγ” value in data set [2] was 11200. Further, the “Collagen biosynthesis (%)” value in data set [3] is given as 108%. Also, the “Collagenase expression (%)” value in data set [4] worked out at 77%. For the same compound, the “Elastase expression (%)” value in data set [5] is reported as 90%. Besides, in data set [6], the “Evaluation (phototoxicity)” value is reported as “No phototoxicity (lower value than 0.5, criterion value to be estimated as no phototoxicity)” and the Phototoxic index was 0. In data set [7], the “P.I.I. (Primary Irritation Index)” value was 0.546 and the “Evaluation (skin irritation)” value is reported as “No irritation”.

On to `CCCc1ccc(N(C)C(=O)c2ccc(C(=O)NO)cc2)cc1` [Example 49, [4-(N-hydroxycarbamoyl)phenyl]-N-methyl-N-[4-propylphenyl]carboxyamide], for which the “Luciferase activity RARα” value in data set [1] was found to be 14500. For the same compound, the “Luciferase activity RARγ” value in data set [2] turned out to be 12100. Also, the “Collagen biosynthesis (%)” value in data set [3] is 109%. Also, the “Collagenase expression (%)” value in data set [4] was determined as 81%. In addition, the “Elastase expression (%)” value in data set [5] was determined as 87%. In addition, in data set [6], the “Evaluation (phototoxicity)” value is given as “No phototoxicity (lower value than 0.5, criterion value to be estimated as no phototoxicity)” and the Phototoxic index is 0. In data set [7], the “P.I.I. (Primary Irritation Index)” value came out at 0.342 and the “Evaluation (skin irritation)” value is recorded as “No irritation”.

Turning to `CCc1ccc(C(=O)Nc2ccc(C(=O)NO)cc2)cc1` [Example 4, N-[4-(N-hydroxycarbamoyl)phenyl][4-ethylphenyl]carboxyamide], in data set [1], the “Luciferase activity RARα” value came to 12000. The “Luciferase activity RARγ” value in data set [2] stood at 12300. Besides, the “Collagen biosynthesis (%)” value in data set [3] was 119%. In addition, the “Collagenase expression (%)” value in data set [4] is reported as 78%. Moreover, in data set [5], the “Elastase expression (%)” value is reported as 70%. In data set [6], the “Evaluation (phototoxicity)” value is given as “No phototoxicity (lower value than 0.5, criterion value to be estimated as no phototoxicity)” and the Phototoxic index was determined as 0. In data set [7], the “P.I.I. (Primary Irritation Index)” value worked out at 0.350 and the “Evaluation (skin irritation)” value is on record as “No irritation”.

On to `CC1=C(/C=C/C(C)=C/C=C/C(C)=C/CO)C(C)(C)CCC1` [Retinol, retinol, reference compound], for which the “Luciferase activity RARα” value in data set [1] is 2500. For the same compound, in data set [2], the “Luciferase activity RARγ” value turned out to be 6000. In data set [3], the “Collagen biosynthesis (%)” value was 120%. Besides, the “Collagenase expression (%)” value in data set [4] came out at 85%. The “Elastase expression (%)” value in data set [5] is 88%.

Take `CC1=C(/C=C/C(C)=C/C=C/C(C)=C/C(=O)O)C(C)(C)CCC1` [Retinoic acid, retinoic acid, reference compound]: in data set [3], the “Collagen biosynthesis (%)” value stood at 125%. Besides, the “Collagenase expression (%)” value in data set [4] worked out at 60%. The “Elastase expression (%)” value in data set [5] came to 68%. Moreover, in data set [7], the “P.I.I. (Primary Irritation Index)” value was 1.830 and the “Evaluation (skin irritation)” value is listed as “Light irritation”.

`CN(O)C(=O)c1ccc(C(=O)NC23CC4CC(CC(C4)C2)C3)cc1` [Example 44, N-adamantyl [4-(N-hydroxy-N-methylcarbamoyl)phenyl]carboxyamide]: in data set [1], the “Luciferase activity RARα” value worked out at 23100. Moreover, the “Evaluation (phototoxicity)” value in data set [6] is “No phototoxicity (lower value than 0.5, criterion value to be estimated as no phototoxicity)”.
